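Following 48 hours of exposure in 96-well plates, responses at five concentrations were used to interpolate endpoints linearly. Here, GI50 denotes the concentration required for 50% inhibition of growth.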 Calls of active or inactive are those of the source. Cut-off read from the data, not from the text of the source: active = GI50 up to about 1.1 µM and inactive = higher.
Tests used:
Test in all cases: NCI tumour cell line growth inhibition, 48 h
[1] = tested on: SN12C
[2] = tested on: BT-549
[3] = tested on: SNB-75
[4] = tested on: RPMI-8226
[5] = tested on: OVCAR-4
[6] = tested on: M14
[7] = tested on: NCI-H522
[8] = tested on: IGROV-1
[9] = tested on: CAKI-1
[10] = tested on: SF-295
[11] = tested on: UO-31
[12] = tested on: K562
[13] = tested on: HT-29
[14] = tested on: HOP-62
[15] = tested on: SK-OV-3
[16] = tested on: SNB-19
[17] = tested on: NCI-H23
[18] = tested on: SF-539
[19] = tested on: HL-60
[20] = tested on: Malme-3M

Compound	GI50 [1]	GI50 [2]	GI50 [3]	GI50 [4]	GI50 [5]	GI50 [6]	GI50 [7]	GI50 [8]	GI50 [9]	GI50 [10]	GI50 [11]	GI50 [12]	GI50 [13]	GI50 [14]	GI50 [15]	GI50 [16]	GI50 [17]	GI50 [18]	GI50 [19]	GI50 [20]
Nc1ccccc1-c1noc(=O)[nH]1	> 100 µM (inactive)	> 100 µM (inactive)	> 100 µM (inactive)	> 100 µM (inactive)	> 100 µM (inactive)	> 100 µM (inactive)	> 100 µM (inactive)	60.4 µM (inactive)	> 100 µM (inactive)	> 100 µM (inactive)	> 100 µM (inactive)	> 100 µM (inactive)	> 100 µM (inactive)	> 100 µM (inactive)	> 100 µM (inactive)	> 100 µM (inactive)	> 100 µM (inactive)	> 100 µM (inactive)		
COC(=O)C1=C(C)NC(C)=C(C(=O)OC)C1c1cccc(N=O)c1	18.8 µM (inactive)	17 µM (inactive)		4.53 µM (inactive)	13.1 µM (inactive)	13.9 µM (inactive)	3.18 µM (inactive)	17 µM (inactive)	10.6 µM (inactive)	52.8 µM (inactive)	8.38 µM (inactive)	4.69 µM (inactive)	16.3 µM (inactive)	21.1 µM (inactive)	25.4 µM (inactive)	75.5 µM (inactive)	19.5 µM (inactive)	19.1 µM (inactive)	3.85 µM (inactive)	15.4 µM (inactive)
COC(=O)C(=O)C(C(=O)C(=O)Nc1ccc(Cl)cc1Cl)c1nc2ccc(Cl)cc2nc1O (centres undefined)	> 100 µM (inactive)	> 100 µM (inactive)	65.2 µM (inactive)		> 100 µM (inactive)	> 100 µM (inactive)	> 100 µM (inactive)	58.7 µM (inactive)	> 100 µM (inactive)	> 100 µM (inactive)	28.4 µM (inactive)		> 100 µM (inactive)	> 100 µM (inactive)	> 100 µM (inactive)	> 100 µM (inactive)	> 100 µM (inactive)	> 100 µM (inactive)	> 100 µM (inactive)	
Cn1c2c(c3ccccc31)CCN1C(=O)C34CCCC3CC21S4 (centres undefined)	> 100 µM (inactive)	> 100 µM (inactive)		> 100 µM (inactive)	> 100 µM (inactive)	> 100 µM (inactive)	> 100 µM (inactive)	> 100 µM (inactive)	> 100 µM (inactive)	> 100 µM (inactive)	> 100 µM (inactive)	> 100 µM (inactive)	> 100 µM (inactive)	> 100 µM (inactive)	> 100 µM (inactive)	> 100 µM (inactive)	> 100 µM (inactive)	> 100 µM (inactive)	> 100 µM (inactive)	> 100 µM (inactive)
COc1cc(C2S/C(=C/c3ccccc3)C(=O)N2c2cc(Cl)ccc2Cl)cc(OC)c1OC (centres undefined)	45.9 µM (inactive)	39.5 µM (inactive)		36.2 µM (inactive)		19.6 µM (inactive)	21.9 µM (inactive)	18.9 µM (inactive)	39.2 µM (inactive)	60.3 µM (inactive)	55.7 µM (inactive)	47 µM (inactive)	47.1 µM (inactive)	46.7 µM (inactive)	> 100 µM (inactive)	71.9 µM (inactive)	49.4 µM (inactive)	17.9 µM (inactive)	31 µM (inactive)	32.8 µM (inactive)
CCSC1SC(c2ccccc2)(c2ccccc2)c2ccccc21 (centres undefined)	38.3 µM (inactive)	39.8 µM (inactive)	87.9 µM (inactive)	32.8 µM (inactive)	55.1 µM (inactive)	31.2 µM (inactive)	43.5 µM (inactive)	75.3 µM (inactive)	48.6 µM (inactive)	70 µM (inactive)	47.5 µM (inactive)	62.4 µM (inactive)	34.6 µM (inactive)	> 100 µM (inactive)	> 100 µM (inactive)	> 100 µM (inactive)	47.9 µM (inactive)	> 100 µM (inactive)		34.1 µM (inactive)
CN(C)CCOc1ccc2[nH]c(C(=O)N3CC(CCl)c4ccc(N)cc43)cc2c1 (centres undefined)	0.108 µM (active)	0.192 µM (active)	0.112 µM (active)	0.228 µM (active)	0.0703 µM (active)	0.145 µM (active)	0.0154 µM (active)	0.0395 µM (active)	0.0489 µM (active)	0.0885 µM (active)	0.065 µM (active)	0.0533 µM (active)	< 0.0358 µM (active)	0.0356 µM (active)	1.94 µM (inactive)	0.258 µM (active)	0.0562 µM (active)	0.385 µM (active)		0.164 µM (active)
